The source of these data is patent publication US20260232835A1, “AFFIBODY MICELLE DRUG CONJUGATE” (KOWA COMPANY, LTD., priority 2022, published 2026).

pIC50: −log10 of the molar value.

The test system of assay [1] is HER2 antigen-positive human cancer cell line HCC-1954. The experiment in a line: Cytotoxic test (CellTiter-Glo cell viability), HCC-1954. The format is cell-based. To be noted: cultured for 4 days. In general terms: In ATP-based viability assays light output follows the ATP content of the culture.
Method: (§1) The mertansine (DM1) (Cayman CHEMICAL) was dissolved in dimethyl sulfoxide (DMSO: FUJIFILM Wako Pure Chemical Corporation) to prepare DM1 solutions of 60 μmol/L, 20 μmol/L, 6.7 μmol/L, 2.2 μmol/L, 0.74 μmol/L, 0.25 μmol/L, 0.082 μmol/L, and 0.027 μmol/L. Next, after a dilution series of 60 nmol/L, 20 nmol/L, 6.7 nmol/L, 2.2 nmol/L, 0.74 nmol/L, 0.25 nmol/L, 0.082 nmol/L, and 0.027 nmol/L were created by respectively diluting these solutions with RPMI1640 (hereinafter, RPMI1640 medium) containing 10% fetal bovine serum (Merck KGaA), these solutions were respectively added to a cell culture microplate in equal amounts to a cell culture liquid, and diluted to 1/2, thereby evaluating the cytotoxic effects thereof at a final DM1 concentration of 30 nmol/L, 10 nmol/L, 3.3 nmol/L, 1.1 nmol/L, 0.37 nmol/L, 0.12 nmol/L, 0.041 nmol/L, or 0.014 nmol/L.
(§2) A HER2 antigen-positive human gastric cancer cell line HCC-1954 (American Type Culture Collection) or a HER2 antigen-negative human breast cancer cell line MDA-MB-468 (American Type Culture Collection) was adjusted to a cell concentration of 2.0×10^4 cells/mL with the RPMI1640 medium, and 100 μL each was added to the 96 well microplate for cell culture and cultured overnight. […] The light emission amount was then measured with the plate reader (Molecular Devices, LLC.). The cell viability was calculated by the following equation. […]
Assay [2] deals with human breast cancer cell line MDA-MB-468. In words: Cytotoxic test (CellTiter-Glo cell viability), MDA-MB-468. The format is cell-based. The following applies: Table 8, cultured for 4 days, read-out: IC50 HER2-negative MDA-MB-468.
Method: as §1, §2
Assay [3] concerns mouse colon cancer cell line C26. In words: Drug efficacy test in cancer-carrying nude mice with subcutaneously transplanted C26. The following applies: after 14 days from administration; tail vein, 3 times every other day; DACHPt-encapsulating SCNP 3 mg/kg in terms of Pt, oxaliplatin solution 8 mg/kg (3.9 mg/kg in terms of Pt). The format is in vivo. As for the experimental part:
Cancer-carrying models obtained by subcutaneously transplanting a mouse colon cancer cell line C26 (American Type Culture Collection) into female nude mice (BALB/c-nu/nu, 7 weeks old; Charles River Laboratories Japan, Inc.) were used for the drug efficacy test.
The mouse colon cancer cell line C26 subcultured in a CO2 incubator was suspended in a liquid medium (Dulbecco's Modified Eagle's Medium-high glucose, Sigma-Aldrich), and injected subcutaneously in the back of each of the nude mice such that the number of cells per mouse was 1×106/100 μL. Then, the nude mice were raised for about 1 week, and then administration of the agent was started when an average value of tumor volumes was grown to about 30 mm^3. The DACHPt-encapsulating SCNP (DACHPt-encapsulating SCNP prepared using the copolymer of Example 70) was administered through the tail veins of the mice (3 times every other day), and antitumor effects were evaluated based on the tumor volumes (4 to 5 mice per 1 group). As a comparison, an oxaliplatin solution (Comparative Example 1) was used, and the oxaliplatin solution was administered in the same manner. The dose of each preparation was 8 mg/kg (3.9 mg/kg in terms of Pt) as the maximum administrable dose for the oxaliplatin solution, and 3 mg/kg in terms of Pt for the DACHPt-encapsulating SCNP. […]

As for `COc1cc2cc(c1Cl)N(C)C(=O)C[C@H](OC(=O)[C@H](C)N(C)C(=O)CCS)[C@]1(C)O[C@H]1[C@H](C)[C@@H]1C[C@@](O)(NC(=O)O1)[C@H](OC)/C=C/C=C(\C)C2` [Comparative example 2, mertansine, reference compound], the figures for the pIC50 in assay [1] and in assay [2] were 9.96 and 9.39, respectively.

Consider `O=C1[O][Pt]2([NH][C@@H]3CCCC[C@H]3[NH]2)[O]C1=O` [oxaliplatin solution, oxaliplatin], for which the “T/C: ratio of the tumor volume of the drug administration group (T) to that of the control group (C)” value in assay [3] was 1.1.

By pIC50 is commonly meant the negative decadic logarithm of the IC50, by convention in mol/L.
